In this assay the target is T1, CSF-1R (Homo sapiens, UniProt P07333).
T1 construct: His-tagged kinase domain of CSF-1R (i.e., amino acids 568-912, GeneBank ID NM_005211); His; made in house; host or cells: baculovirus-infected SF+Express insect cells
T1 sequence (P07333 568-912): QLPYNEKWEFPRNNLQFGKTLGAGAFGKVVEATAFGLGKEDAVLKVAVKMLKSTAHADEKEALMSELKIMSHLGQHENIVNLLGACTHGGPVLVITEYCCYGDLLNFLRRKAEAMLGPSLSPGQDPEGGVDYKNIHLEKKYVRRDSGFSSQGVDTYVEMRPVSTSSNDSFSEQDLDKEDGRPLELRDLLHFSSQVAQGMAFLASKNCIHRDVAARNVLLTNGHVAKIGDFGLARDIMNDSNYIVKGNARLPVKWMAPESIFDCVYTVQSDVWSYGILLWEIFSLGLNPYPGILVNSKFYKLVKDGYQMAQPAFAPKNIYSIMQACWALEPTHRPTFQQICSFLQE
The assay can be described thus: CSF-1R In Vitro AlphaScreen Assay. In kind it is biochemical. Conditions: purified His-tagged kinase domain of CSF-1R, pEY substrate, 90 μM ATP. As for the experimental part: Activity of purified CSF-1R was determined in vitro using an Amplified Luminescent Proximity Homogeneous Assay (ALPHA)(Perkin Elmer), which measures phosphorylation of the CSF-1R substrate, biotinylated poly-glutamine-tyrosine peptide (pEY-HTRF CisBio 61GT0BLD), as described below.
The phosphorylation of the CSF-1R substrate in the presence and absence of the compound of interest was determined. […] Plates were incubated at 25° C. for 18 hours in the dark. Phosphorylated substrate was detected by an EnVision plate reader (Perkin Elmer) 680 nm excitation, 520-620 nm emission. Data was graphed and IC50s calculated using Excel Fit (Microsoft).
In general terms: Alpha assays give light when donor and acceptor beads are brought close together.

For the compound `COc1cc2c(Nc3cccc(Cl)c3Cl)c(C(N)=O)cnc2cc1N1CCN(C)CC1` [Example 9], 23 nM corresponded to half-maximal inhibition (IC50). Take `NC(=O)c1cnc2cc(F)c(N3CCOCC3)cc2c1Nc1ccc(F)cc1F` [Example 18]: the half-inhibitory concentration (IC50) was found to be 154 nM.

As a reminder, the IC50 is the midpoint of a concentration-inhibition curve. Lower therefore signals greater potency.

Source of the values: patent US20090054411A1, “4-ANILINOQUINOLINE-3-CARBOXAMIDES AS CSF-1R KINASE INHIBITORS” (AstraZeneca AB, priority 2006, published 2009).
